Where “and” joins values, the source holds several entries; their conditions need not be identical. Equal values may be shown once. Toxic doses and inconclusive results are not listed. The calls were made as follows: active = survival T/C of 150% or more; inactive = T/C below 125% in these data.
Tested on: P388 leukemia ip, CD2F1 mice, survival T/C
Test: NCI In Vivo Anticancer Drug Screen. Data for tumor model P388 Leukemia (intraperitoneal) in CD2F1 (CDF1) mice
Conditions: endpoint: median survival time, higher = longer survival
In short: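 Mice carrying the transplanted tumor received test compound or vehicle. Survival was recorded in each group, and the value is the treated-group measurement divided by that of the vehicle-treated control group.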

[1] = dose: 50.0 mg/kg/injection, schedule: Q01DX009 (ip), vehicle: saline
[2] = dose: 100.0 mg/kg/injection, schedule: Q01DX009 (ip), vehicle: saline
[3] = dose: 200.0 mg/kg/injection, schedule: Q01DX009 (ip), vehicle: saline
[4] = dose: 100.0 mg/kg/injection, schedule: Q04DX003 (ip), vehicle: Klucel (hydroxypropylcellulose) (HPC)
[5] = dose: 200.0 mg/kg/injection, schedule: Q04DX003 (ip), vehicle: Klucel (hydroxypropylcellulose) (HPC)
[6] = dose: 50.0 mg/kg/injection, schedule: Q01DX009 (ip), vehicle: saline with Tween-80
[7] = dose: 100.0 mg/kg/injection, schedule: Q01DX009 (ip), vehicle: saline with Tween-80
[8] = dose: 200.0 mg/kg/injection, schedule: Q01DX009 (ip), vehicle: saline with Tween-80
[9] = dose: 60.0 mg/kg/injection, schedule: Q01DX005 (ip), vehicle: saline with Tween-80
[10] = dose: 120.0 mg/kg/injection, schedule: Q01DX005 (ip), vehicle: saline with Tween-80
[11] = dose: 240.0 mg/kg/injection, schedule: Q01DX005 (ip), vehicle: saline with Tween-80
[12] = dose: 25.0 mg/kg/injection, schedule: Q01DX009 (ip), vehicle: saline with Tween-80

Measured: T/C

COc1cccc2c1C(=O)c1c(O)c3c(c(O)c1C2=O)CC(O)(C(C)=O)CC3OC1CCN(c2ccccc2)CC(C)O1 (configuration not stated)
inactive: dose: 3.13 mg/kg/injection, schedule: Q04DX003 (ip), vehicle: distilled water + Tween-80 96 % of control | dose: 6.25 mg/kg/injection, schedule: Q04DX003 (ip), vehicle: distilled water + Tween-80 98 % of control | dose: 12.5 mg/kg/injection, schedule: Q04DX003 (ip), vehicle: distilled water + Tween-80 100 % of control | dose: 25.0 mg/kg/injection, schedule: Q04DX003 (ip), vehicle: distilled water + Tween-80 98 % of control | dose: 50.0 mg/kg/injection, schedule: Q04DX003 (ip), vehicle: distilled water + Tween-80 105 % of control

CCCSCN(CC)CC
inactive: [1] 95 % of control | [2] 90 % of control | [3] 114 % of control

N#CSCCSC#N
inactive: dose: 6.25 mg/kg/injection, schedule: Q04DX002 (ip), vehicle: Klucel (hydroxypropylcellulose) (HPC) 100 % of control | dose: 12.5 mg/kg/injection, schedule: Q04DX002 (ip), vehicle: Klucel (hydroxypropylcellulose) (HPC) 97 % of control

CC(=O)N1CCc2ccccc2C1C1NCCc2ccccc21 (configuration not stated)
inactive: [4] 95 % of control | [5] 94 % of control

CC(=O)Nc1ccc(S(=O)(=O)Nc2ccc3oc(=O)[nH]c3c2)cc1
inactive: dose: 100.0 mg/kg/injection, schedule: Q01DX001 (ip), vehicle: Klucel (hydroxypropylcellulose) (HPC) 98 % of control | dose: 200.0 mg/kg/injection, schedule: Q01DX001 (ip), vehicle: Klucel (hydroxypropylcellulose) (HPC) 93 % of control | dose: 400.0 mg/kg/injection, schedule: Q01DX001 (ip), vehicle: Klucel (hydroxypropylcellulose) (HPC) 92 % of control

O=C1CCCCC1C(O)c1c(Cl)cccc1Cl (configuration not stated)
inactive: [6] 99 % of control | [7] 99 % of control | [8] 100 % of control

O=S(=O)(O)C1=CC(=N\Cl)/C=CC/1=N/Cl
inactive: dose: 25.0 mg/kg/injection, schedule: Q01DX005 (ip), vehicle: saline + Tween-80 + alcohol 100 % of control and 113 % of control | dose: 50.0 mg/kg/injection, schedule: Q01DX005 (ip), vehicle: saline + Tween-80 + alcohol 107 % of control and 113 % of control and 119 % of control | dose: 100.0 mg/kg/injection, schedule: Q01DX005 (ip), vehicle: saline + Tween-80 + alcohol 111 % of control and 117 % of control | dose: 200.0 mg/kg/injection, schedule: Q01DX005 (ip), vehicle: saline + Tween-80 + alcohol 116 % of control and 120 % of control

Cc1ccc([Se](=C(C(=O)c2ccccc2)C(=O)c2ccccc2)c2ccc(C)cc2)cc1
inactive: [1] 104 % of control | [2] 100 % of control | [3] 104 % of control

COc1ccc(-n2c(CSc3ccc(Cl)cc3)n[nH]c2=S)cc1
inactive: [9] 104 % of control | [10] 96 % of control | [11] 95 % of control

CC(=O)C(=O)c1ccc(O)c(C)c1O
inactive: [6] 107 % of control | [7] 104 % of control | [8] 105 % of control

CCCCOC1OCN(C(C)(C)C)CC1(C)C (configuration not stated)
inactive: [12] 101 % of control | [6] 100 % of control | [7] 113 % of control | [8] 111 % of control

COc1ccc(OC)c(NC(=S)NC(=O)c2cccc(Br)c2)c1
inactive: [9] 95 % of control | [10] 92 % of control | [11] 89 % of control

CCCCCCCCCCCCCCCCOC(=O)c1ccc(O)cc1
inactive: dose: 50.0 mg/kg/injection, schedule: Q01DX009 (ip), vehicle: Klucel (hydroxypropylcellulose) (HPC) 95 % of control | dose: 100.0 mg/kg/injection, schedule: Q01DX009 (ip), vehicle: Klucel (hydroxypropylcellulose) (HPC) 92 % of control | dose: 200.0 mg/kg/injection, schedule: Q01DX009 (ip), vehicle: Klucel (hydroxypropylcellulose) (HPC) 103 % of control

O=C1CC(c2ccccc2)C(c2ccccc2)C(=O)O1 (configuration not stated)
inactive: [4] 87 % of control | [5] 93 % of control | dose: 400.0 mg/kg/injection, schedule: Q04DX003 (ip), vehicle: Klucel (hydroxypropylcellulose) (HPC) 91 % of control

CC1(/C=C/c2ccccc2)OCCO1
inactive: [6] 99 % of control | [7] 98 % of control | [8] 102 % of control

O=C(NCCN1CCN2Cc3[nH]c4ccccc4c3CC2C1)c1ccc([N+](=O)[O-])cc1 (configuration not stated)
inactive: dose: 100.0 mg/kg/injection, schedule: Q04DX002 (ip), vehicle: saline with Tween-80 96 % of control | dose: 200.0 mg/kg/injection, schedule: Q04DX002 (ip), vehicle: saline with Tween-80 87 % of control | dose: 400.0 mg/kg/injection, schedule: Q04DX002 (ip), vehicle: saline with Tween-80 86 % of control

Cc1ccccc1C(=O)Nc1ccccc1-c1ccccc1
inactive: dose: 12.5 mg/kg/injection, schedule: Q01DX009 (ip), vehicle: saline with Tween-80 94 % of control | [12] 100 % of control | [6] 106 % of control | [1] 95 % of control | [3] 93 % of control

COc1ccc2c(c1O)-c1c(O)c(OC)cc3c1[C@H](C2)[N+](C)(C)CC3
inactive: dose: 12.5 mg/kg/injection, schedule: Q04DX003 (ip), vehicle: saline 109 % of control | dose: 25.0 mg/kg/injection, schedule: Q04DX003 (ip), vehicle: saline 114 % of control | dose: 50.0 mg/kg/injection, schedule: Q04DX003 (ip), vehicle: saline 98 % of control and 109 % of control | dose: 100.0 mg/kg/injection, schedule: Q04DX003 (ip), vehicle: saline 113 % of control

Fc1ccc2nc3ccccc3c(SCCCCCSc3c4ccccc4nc4ccc(F)cc34)c2c1
inactive: dose: 60.0 mg/kg/injection, schedule: Q01DX005 (ip), vehicle: Klucel (hydroxypropylcellulose) (HPC) 94 % of control | dose: 120.0 mg/kg/injection, schedule: Q01DX005 (ip), vehicle: Klucel (hydroxypropylcellulose) (HPC) 90 % of control

O=C1CSC(c2c(F)cccc2Cl)N1c1cnccn1 (configuration not stated)
inactive: dose: 25.0 mg/kg/injection, schedule: Q01DX005 (ip), vehicle: Klucel (hydroxypropylcellulose) (HPC) 99 % of control | dose: 50.0 mg/kg/injection, schedule: Q01DX005 (ip), vehicle: Klucel (hydroxypropylcellulose) (HPC) 102 % of control | dose: 100.0 mg/kg/injection, schedule: Q01DX005 (ip), vehicle: Klucel (hydroxypropylcellulose) (HPC) 101 % of control | dose: 200.0 mg/kg/injection, schedule: Q01DX005 (ip), vehicle: Klucel (hydroxypropylcellulose) (HPC) 106 % of control

COc1cc(/C=N/NC(=O)COc2ccccc2)ccc1O
inactive: [9] 100 % of control | [10] 103 % of control | [11] 98 % of control

OCC1C=Cc2ccccc21 (configuration not stated)
inactive: [1] 109 % of control | [2] 107 % of control | [3] 114 % of control

C(=NCCN=Cc1ccc2c(c1)OCO2)c1ccc2c(c1)OCO2
inactive: [12] 93 % of control | [6] 92 % of control | [7] 99 % of control | [8] 100 % of control

C/C(CC(c1ccccc1)N1CCc2ccccc2C1)=N/O (configuration not stated)
inactive: [7] 100 % of control | [8] 100 % of control | dose: 400.0 mg/kg/injection, schedule: Q01DX009 (ip), vehicle: saline with Tween-80 100 % of control

COc1cc2c(cc1O)CCCC=C2
inactive: dose: 100.0 mg/kg/injection, schedule: Q01DX009 (ip), vehicle: gum acacia 113 % of control | dose: 200.0 mg/kg/injection, schedule: Q01DX009 (ip), vehicle: gum acacia 105 % of control | dose: 400.0 mg/kg/injection, schedule: Q01DX009 (ip), vehicle: gum acacia 106 % of control

COC(=O)C(CO)Nc1ccccc1 (configuration not stated)
inactive: [9] 103 % of control | [10] 99 % of control | [11] 96 % of control

COc1cc2cc3c(c(O)c2c(OC)c1OC)C(=O)CC(C)(C)C3
inactive: dose: 25.0 mg/kg/injection, schedule: Q01DX005 (ip), vehicle: saline with Tween-80 101 % of control | dose: 50.0 mg/kg/injection, schedule: Q01DX005 (ip), vehicle: saline with Tween-80 91 % of control

O=C(/C=C/c1ccccc1)CC1=NC2NN(c3ccccc3)C(=O)C2=C1CC(=O)/C=C/c1ccccc1 (configuration not stated)
inactive: dose: 60.0 mg/kg/injection, schedule: Q01DX005 (ip), vehicle: suspension in saline 95 % of control | dose: 120.0 mg/kg/injection, schedule: Q01DX005 (ip), vehicle: suspension in saline 99 % of control | dose: 240.0 mg/kg/injection, schedule: Q01DX005 (ip), vehicle: suspension in saline 107 % of control

COc1cc2c(cc1OC)C(Cc1cc(OC)c(OC)cc1[N+](=O)[O-])=[N+](C)CC2
inactive: dose: 25.0 mg/kg/injection, schedule: Q01DX009 (ip), vehicle: other 98 % of control | dose: 50.0 mg/kg/injection, schedule: Q01DX009 (ip), vehicle: other 96 % of control | dose: 100.0 mg/kg/injection, schedule: Q01DX009 (ip), vehicle: other 102 % of control
